From BindingDB's records for doi:10.1021/jm020164l (University of Montreal, 2002)

Biological target: Delta-type opioid receptor (Homo sapiens, UniProt P41143)
Experiment: In vitro binding affinity against cloned human Opioid receptor delta 1 expressed in HEK 293S cells

Chain of Delta-type opioid receptor (P41143 whole entry): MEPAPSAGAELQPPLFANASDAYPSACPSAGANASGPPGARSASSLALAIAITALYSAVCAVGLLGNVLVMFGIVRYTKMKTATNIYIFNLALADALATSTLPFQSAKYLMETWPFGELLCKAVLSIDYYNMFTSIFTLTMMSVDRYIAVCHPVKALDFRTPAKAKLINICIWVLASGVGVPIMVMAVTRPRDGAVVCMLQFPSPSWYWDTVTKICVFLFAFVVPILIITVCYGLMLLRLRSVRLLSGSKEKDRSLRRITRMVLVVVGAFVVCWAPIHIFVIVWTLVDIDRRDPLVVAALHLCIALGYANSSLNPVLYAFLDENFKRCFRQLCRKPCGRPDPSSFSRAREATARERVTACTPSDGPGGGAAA

SMILES: C[C@H]1C2C3=CC=CCC3[C@@H](Cc3ccccc32)N1C (stereo partly drawn) [16,17-dimethyl-(16S)-17-azatetracyclo[7.6.2.02,7.010,15]heptadeca-2(7),3,5,12,14-pentaene]
- IC50: > 10 µM
